Measurements as given in patent US8946216B2, “Indazole derivatives useful as ERK inhibitors” (Merck Sharp & Dohme Corp., priority 2010, dated 2015).

How the values were obtained:
ERK protein = ERK protein (Homo sapiens, UniProt P28482); assay: TdF (Temperature Dependence Fluorescence, thermal shift) assay for ERK; type: binding; settings: read-out: TdF Kd; 3 μM ERK protein, 15, 50 or 100 μM compound, Sypro Orange; Kd calculated from ΔTm; uncertainty estimated ±50%
Excerpt: Assays: TdF Assay for ERK
The SAR (Structure Activity Relationship) for ERK ligands covered by this invention was interrogated using the TdF (Temperature Dependence Fluorescence) assay or best known as thermal shift assay. The TdF assay was mainly conducted in the 96-well based CHROMO-4 real time fluorescence plate reader (BioRad). The Sypro Orange (Sigma-Aldrich), environmentally sensitive fluorescence dye, was used to monitor the protein folding-unfolding transition. Protein-ligand binding was gauged by the change (or shift) in the unfolding transition temperature (ΔTm) acquired at protein alone with respect to protein in the presence of ligand of interest.
Compound of interest was first prepared in DMSO stock (typical concentration: 10 mM). Sample of 20 μL was then added into the 96-well PCR plate, where it consisted of 3 μM. […] Final percentage of DMSO resided in the sample was 2%. The sample plate was heated from 30° C. to 90° C. with thermal ramping rate of 1 ° C./min. The fluorescence signals were acquired with excitation and emission wavelengths centered at 490 and 560 nm respectively. The instrument thermal stability was ±0.2° C. The melting temperatures (Tm) for ERK protein under aforementioned conditions occurred at 61.0±0.2° C. and 64.8±0.2° C. respectively.
Theoretical Basis for TdF-based Ligand Binding Affinity Constant
The derivation of TdF-based ligand binding affinity constant (Kd) followed closely those previously formulated by Brandts and Lin [2]. In brief, the binding constant of the ligand at the Tm is expressed as below: […]
where T0 is the midpoint of unfolding for unliganded protein and Tm is the midpoint of unfolding in presence of ligand. [LTm] is free ligand at Tm. The ΔHu and ΔCpu are the enthalpy of unfolding and heat capacity change of unfolding for the protein respectively. Following algorithm derived by Winsor and coworker, the T0, ΔHu and ΔCpu can be determined separately from nonlinear regression fitting the protein alone melting curve:
Where F(T) is the observed fluorescence intensity at any temperature T, Yn and Yu are the predicted fluorescence intensities for fully folded and unfolded protein, respectively; mn and mu are slope correction for changes in Yn and Yu with respect to changes in temperature (analogously replace T0 with Tm in the above equation for liganded protein to yield Tm).
where ΔHL(T) is the van't Hoff enthalpy of ligand binding at temperature T and ΔCpL is the heat capacity upon ligand binding. For simplicity, the ΔCpL and ΔHL(T) were set to zero and −7 kcal/mol respectively. The uncertainty in the calculated ligand binding affinity constant was estimated to be ±50%.

[1] = target: unphosphorylated Mouse ERK2 protein (inactive ERK2) (Mus musculus, UniProt P63085); assay: Coupled ERK2 (cERK) assay, coupled MEK1/ERK2 IMAP; type: biochemical; settings: 30 min preincubation with inactive ERK2, then activation by human MEK1; 30 μM ATP; fluorescence polarization; read-out: cERK2 IC50
Sequence of unphosphorylated Mouse ERK2 protein (inactive ERK2) (P63085 whole entry): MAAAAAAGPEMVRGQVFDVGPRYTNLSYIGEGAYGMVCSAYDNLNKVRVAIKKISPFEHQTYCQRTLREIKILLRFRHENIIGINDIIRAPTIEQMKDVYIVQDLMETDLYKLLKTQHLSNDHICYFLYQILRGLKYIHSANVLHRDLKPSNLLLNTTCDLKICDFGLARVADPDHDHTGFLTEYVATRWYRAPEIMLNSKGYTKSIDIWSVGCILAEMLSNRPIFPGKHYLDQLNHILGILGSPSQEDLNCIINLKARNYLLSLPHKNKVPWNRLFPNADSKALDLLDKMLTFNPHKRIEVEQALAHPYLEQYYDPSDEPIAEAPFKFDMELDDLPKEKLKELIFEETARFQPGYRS
Excerpt: • 1. M. W. Pantoliana, E. C. Petrella, J. D. Kwasnoski, V. S. Lobanov, J. Myslik, E. Graf, T. Carver, E. Asel, B. A. Springer, P. Lane, F. R. Salemme, High-density miniaturized thermal shift assays as a general strategy for drug discovery, J. Biomol. Screen 6 (2001) 429-440 • 2. J. F. Brandts, L.-N. Lin, Study of strong to ultratight protein interactions using differential scanning calorimetry, Biochemistry 29 (1990) 6927-6940 • 3. Mayhood, T. W., Windsor, W. T., Ligand binding affinity determined by temperature-dependent circular dichroism: Cyclin-dependent kinase 2 inhibitors, Analytical Biochemistry 345 (2005) 187-197 Coupled ERK2 (cERK) Assay:
14 μl of kinase buffer (10 mM Tris.HCl pH 7.2, 10 mM MgCl2, 0.01% Tween-20, 1 mM DTT) containing 0.4 ng unphosphorylated Mouse ERK2 protein was added to each well of a black 384-well assay plate. […] DMSO concentration during initial incubation is 6.7%. ERK2 activity was determined to be insensitive to DMSO concentrations up to 20%. ERK2 was then activated and it's kinase activity measured by the addition of 10 μl kinase buffer with the following components (final concentration per reaction): 2 ng active (phosphorylated) human MEK1 protein and 4 μM (total) ERK2 IMAP substrate peptides (3.9 μM unlabeled IPTTPITTTYFFFK-CONH2 and 100 nM IPTTPITTTYFFFK(5-carboxyfluorescein)-CONH2) and 30 μM ATP. DMSO concentration during ERK activation was 4%. After one hour, reactions were terminated by addition of 60 μl IMAP detections beads in binding buffer (Molecular Devices). Binding was allowed to equilibrate for 30 minutes before reading the plate on an LJL Analyst Fluorescence Polarization plate reader. […] Active compounds were reconfirmed in an independent assay.

Sequence of ERK protein (P28482 2-360): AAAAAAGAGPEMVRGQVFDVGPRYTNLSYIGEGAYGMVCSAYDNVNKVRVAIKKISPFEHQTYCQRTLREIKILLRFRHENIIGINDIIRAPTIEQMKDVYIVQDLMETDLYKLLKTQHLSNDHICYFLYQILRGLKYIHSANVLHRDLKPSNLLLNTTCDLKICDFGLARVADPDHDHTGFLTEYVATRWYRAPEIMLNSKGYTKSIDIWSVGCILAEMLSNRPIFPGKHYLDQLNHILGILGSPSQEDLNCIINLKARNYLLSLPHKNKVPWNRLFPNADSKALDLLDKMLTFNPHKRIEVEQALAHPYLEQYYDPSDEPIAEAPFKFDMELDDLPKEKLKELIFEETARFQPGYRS

| Kd (ERK protein) [nM] | IC50 [1] [nM] | SMILES |
| --- | --- | --- |
| 38 | 114 | O=C(Nc1ccc2[nH]nc(-c3ccncc3)c2c1)C1CN(Cc2ccccc2Br)CCS1 (stereo not shown) [Compound 6, 4-[(2-BROMOPHENYL)METHYL]-N-[3-(4-PYRIDINYL)-1H-INDAZOL-5-YL]-2-THIOMORPHOLINECARBOXAMIDE] |
| 17 | 96.9 | O=C(Nc1ccc2[nH]nc(-c3ccncc3)c2c1)C1CN(Cc2ccccc2Br)CCO1 (stereo not shown) [Compound 7, 4-[(2-BROMOPHENYL)METHYL]-N-[3-(4-PYRIDINYL)-1H-INDAZOL-5-YL]-2-MORPHOLINECARBOXAMIDE] |
| 201 | 929 | O=C(Nc1ccc2[nH]nc(-c3ccncc3)c2c1)C1CN(Cc2cscn2)CCS1 (stereo not shown) [Compound 13, N-[3-(4-PYRIDINYL)-1H-INDAZOL-5-YL]-4-(4-THIAZOLYLMETHYL)-2-THIOMORPHOLINECARBOXAMIDE] |
| 17 | 77.8 | O=C(Nc1ccc2[nH]nc(-c3ccncc3)c2c1)C1CN(Cc2ccccc2Cl)CCO1 (stereo not shown) [Compound 15, 4-[(2-CHLOROPHENYL)METHYL]-N-[3-(4-PYRIDINYL)-1H-INDAZOL-5-YL]-2-MORPHOLINECARBOXAMIDE] |
| 10 | 51.1 | O=C(Nc1ccc2[nH]nc(-c3ccncc3)c2c1)C1CN(Cc2ccccc2)CCO1 (stereo not shown) [Compound 20, 4-(PHENYLMETHYL)-N-[3-(4-PYRIDINYL)-1H-INDAZOL-5-YL]-2-MORPHOLINECARBOXAMIDE] |
| 4 | 130 | O=C(Nc1ccc2[nH]nc(-c3ccncc3)c2c1)C1CCCN(Cc2ccccc2Br)C1 (stereo not shown) [Compound 21, 1-[(2-BROMOPHENYL)METHYL]-N-[3-(4-PYRIDINYL)-1H-INDAZOL-5-YL]-3-PIPERIDINECARBOXAMIDE] |
| 9 | 27.3 | O=C(Nc1ccc2[nH]nc(-c3ccncc3)c2c1)C1CCCN(Cc2ccccc2F)C1 (stereo not shown) [Compound 22, 1-[(2-FLUOROPHENYL)METHYL]-N-[3-(4-PYRIDINYL)-1H-INDAZOL-5-YL]-3-PIPERIDINECARBOXAMIDE] |
| 3 | 158 | O=C(Nc1ccc2[nH]nc(-c3ccncc3)c2c1)C1CCCN(Cc2ccccc2Cl)C1 (stereo not shown) [Compound 23, 1-[(2-CHLOROPHENYL)METHYL]-N-[3-(4-PYRIDINYL)-1H-INDAZOL-5-YL]-3-PIPERIDINECARBOXAMIDE] |
| 20 | 239 | O=C(Nc1ccc2[nH]nc(-c3ccncc3)c2c1)C1CCCN(Cc2ccccc2)C1 (stereo not shown) [Compound 24, 1-(PHENYLMETHYL)-N-[3-(4-PYRIDINYL)-1H-INDAZOL-5-YL]-3-PIPERIDINECARBOXAMIDE] |
| 4500 | 631 | O=C(Nc1ccc2[nH]nc(-c3ccncc3)c2c1)C1CCCNC1 (stereo not shown) [Compound 25, N-[3-(4-PYRIDINYL)-1H-INDAZOL-5-YL]-3-PIPERIDINECARBOXAMIDE] |
| 1100 | 4870 | CN1CCCC(C(=O)Nc2ccc3[nH]nc(-c4ccncc4)c3c2)C1 (stereo not shown) [Compound 26, 1-METHYL-N-[3-(4-PYRIDINYL)-1H-INDAZOL-5-YL]-3-PIPERIDINECARBOXAMIDE] |
| 3530 | 538 | O=C(Nc1ccc2[nH]nc(-c3ccncc3)c2c1)C1CN(Cc2ccc(Cl)cc2)CCO1 (stereo not shown) [Compound 27, 4-[(4-CHLOROPHENYL)METHYL]-N-[3-(4-PYRIDINYL)-1H-INDAZOL-5-YL]-2-MORPHOLINECARBOXAMIDE] |
| 3620 | 290 | COc1cccc(CN2CCOC(C(=O)Nc3ccc4[nH]nc(-c5ccncc5)c4c3)C2)c1 (stereo not shown) [Compound 28, 4-[(3-METHOXYPHENYL)METHYL]-N-[3-(4-PYRIDINYL)-1H-INDAZOL-5-YL]-2-MORPHOLINECARBOXAMIDE] |
| 3290 | 1280 | N#Cc1ccc(CN2CCOC(C(=O)Nc3ccc4[nH]nc(-c5ccncc5)c4c3)C2)cc1 (stereo not shown) [Compound 30, 4-[(4-CYANOPHENYL)METHYL]-N-[3-(4-PYRIDINYL)-1H-INDAZOL-5-YL]-2-MORPHOLINECARBOXAMIDE] |
| 2720 | 1180 | N#Cc1cccc(CN2CCOC(C(=O)Nc3ccc4[nH]nc(-c5ccncc5)c4c3)C2)c1 (stereo not shown) [Compound 31, 4-[(3-CYANOPHENYL)METHYL]-N-[3-(4-PYRIDINYL)-1H-INDAZOL-5-YL]-2-MORPHOLINECARBOXAMIDE] |
| 775 | 383 | N#Cc1ccccc1CN1CCOC(C(=O)Nc2ccc3[nH]nc(-c4ccncc4)c3c2)C1 (stereo not shown) [Compound 32, 4-[(2-CYANOPHENYL)METHYL]-N-[3-(4-PYRIDINYL)-1H-INDAZOL-5-YL]-2-MORPHOLINECARBOXAMIDE] |
| 1140 | 226 | COc1ccc(CN2CCOC(C(=O)Nc3ccc4[nH]nc(-c5ccncc5)c4c3)C2)cc1 (stereo not shown) [Compound 33, 4-[(4-METHOXYPHENYL)METHYL]-N-[3-(4-PYRIDINYL)-1H-INDAZOL-5-YL]-2-MORPHOLINECARBOXAMIDE] |
| 588 | 556 | COc1ccc(CN2CCOC(C(=O)Nc3ccc4[nH]nc(-c5ccncc5)c4c3)C2)c(F)c1 (stereo not shown) [Compound 38, 4-[(2-FLUORO-4-METHOXYPHENYL)METHYL]-N-[3-(4-PYRIDINYL)-1H-INDAZOL-5-YL]-2-MORPHOLINECARBOXAMIDE] |
| 715 | 4760 | O=C(Nc1ccc2[nH]nc(-c3ccncc3)c2c1)C1CN(Cc2c(F)cccc2C(F)(F)F)CCO1 (stereo not shown) [Compound 39, 4-[[2-FLUORO-6-(TRIFLUOROMETHYL)PHENYL]METHYL]-N-[3-(4-PYRIDINYL)-1H-INDAZOL-5-YL]-2-MORPHOLINECARBOXAMIDE] |
| 1190 | 1110 | COc1cc(F)c(CN2CCOC(C(=O)Nc3ccc4[nH]nc(-c5ccncc5)c4c3)C2)cc1OC (stereo not shown) [Compound 40, 4-[(2-FLUORO-4,5-DIMETHOXYPHENYL)METHYL]-N-[3-(4-PYRIDINYL)-1H-INDAZOL-5-YL]-2-MORPHOLINECARBOXAMIDE] |
| 84.1 | – | O=C(Nc1ccc2[nH]nc(-c3ccncc3)c2c1)C1CN(Cc2ccccc2)CCC1O (stereo not shown) [Compound 71, 4-HYDROXY-1-(PHENYLMETHYL)-N-[3-(4-PYRIDINYL)-1H-INDAZOL-5-YL]-3-PIPERIDINECARBOXAMIDE] |

| SMILES | Kd (ERK protein) [nM] | IC50 [1] [nM] |
| --- | --- | --- |
| O=C(Nc1ccc2[nH]nc(-c3ccncc3)c2c1)C1CN(Cc2ccsc2)CCO1 (stereo not shown) [Compound 3, N-[3-(4-PYRIDINYL)-1H-INDAZOL-5-YL]-4-(3-THIENYLMETHYL)-2-MORPHOLINECARBOXAMIDE] | 77 | 87.6 |
| O=C(Nc1ccc2[nH]nc(-c3ccncc3)c2c1)C1CN(Cc2cccnc2)CCS1 (stereo not shown) [Compound 8, N-[3-(4-PYRIDINYL)-1H-INDAZOL-5-YL]-4-(3-PYRIDINYLMETHYL)-2-THIOMORPHOLINECARBOXAMIDE] | 4610 | 1070 |
| O=C(Nc1ccc2[nH]nc(-c3ccncc3)c2c1)C1CN(Cc2ccccn2)CCS1 (stereo not shown) [Compound 12, N-[3-(4-PYRIDINYL)-1H-INDAZOL-5-YL]-4-(2-PYRIDINYLMETHYL)-2-THIOMORPHOLINECARBOXAMIDE] | 674 | 1310 |
| O=C(Nc1ccc2[nH]nc(-c3ccncc3)c2c1)C1CN(Cc2ccsc2)CCS1 (stereo not shown) [Compound 14, N-[3-(4-PYRIDINYL)-1H-INDAZOL-5-YL]-4-(3-THIENYLMETHYL)-2-THIOMORPHOLINECARBOXAMIDE] | 34 | 183 |
